From patent US20080039431A1, “Method of improving plant growth by reducing viral infections” (priority 2006, published 2008)

Tested on: tomato spotted wilt virus (TSWV)
Assay: Replicated tomato drench trial (Example 6)
Assay type: in vivo, tomato (Lycopersicon esculentum MILL.)
Details: prothioconazole 0.0084 g ai/plant, imidacloprid 0.01 g/plant; for Percent control of incidence of TSWV in tomatoes: Abbott's formula; for Percent incidence of TSWV in tomatoes: drench
Protocol: Cultivation—A replicated trial on tomato (Lycopersicon esculentum MILL.) was initiated in Molino, Fla. to determine if drenches of prothioconazole alone and in combination with the insecticide imidacloprid would suppress TSWV in tomato. Tomato plants, cultivar FL 47 were transplanted on April 11 into 4 rows, each 9.1 meters long, 60 plants per plot, with three replications. Treatments were applied, into a shallow bowl dug at the base of each plant, as a drench in 40 ml water per plant (6 days after transplanting) on April 17. Treatments— • Untreated—no in-furrow treatment • Imidacloprid@0.01 g imidacloprid/plant. • Prothioconazole—prothioconazole@0.0084 g active ingredient/plant. • Prothioconazole+Imidacloprid—prothioconazole@0.0084 g active ingredient/plant+imidacloprid@0.01 g imidacloprid/plant. TSWV rating—University researchers recommend buffers in TSWV testing. Therefore, the center two rows (30 plants) per plot were used for virus ratings with the outer two rows acting as buffers. TSWV incidence determinations were made based on the presence or absence of TSWV symptoms (chlorosis and stunting) per plant. The four treatments were rated at 21, 29, and 39 days after treatment. Synergy formula—The Colby formula for proof of synergy was used in Example 6. The percent incidence values were converted to percent control with Abbotts's formula (1-treated/untreated)*100. Percent control values for solo treatment X and solo treatment Y, were entered into the Colby formula. When the value determined from the plots with both treatment X and Y applied together is greater than the value determined by the Colby formula then synergy is indicated. The formula is: X+Y−(X*Y/100).

Structure (SMILES): OC(Cc1ccccc1Cl)(Cn1nc[nH]c1=S)C1(Cl)CC1 (stereo not drawn) [Prothioconazole, prothioconazole]
- Percent control of incidence of TSWV in tomatoes (21 days after treatment): 54.79%
- Percent incidence of TSWV in tomatoes (21 days after treatment): 13.2%
- Percent control of incidence of TSWV in tomatoes (29 days after treatment): 28.00%
- Percent incidence of TSWV in tomatoes (29 days after treatment): 48.6%
- Percent control of incidence of TSWV in tomatoes (39 days after treatment): 21.18%
- Percent incidence of TSWV in tomatoes (39 days after treatment): 66.6%
